Consider ten compounds from US20230337677A1, “ARYL AND PYRIDYL AMIDE PESTICIDES AND COMPOSITIONS THEREOF” (University of Florida Research Foundation, Incorporated, priority 2019, published 2023).

Where two headings read alike, the source gives them in different places.

The conditions of data set [1]: Table 3B; Hammett substitution constant based on the ionization of benzoic acids; cited from earlier work.
The test system of data set [2] is Aedes aegypti mosquitoes, insecticide-susceptible Orlando strain. In kind it is in vivo. As to conditions: for 1h % repellency: Screened at μg/cm^2. Put shortly: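 Sixteen female mosquitoes per glass tube facing netting-shielded filter paper treated with acetone solutions (30-0.01 μg/ml; screen at 100 μg/cm^2), no contact. Proportion on treated side scored up to 60 min, then flight-out checked 30 min; mortality after 24 hr constant exposure.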

Data set [3] in a line: Mammalian toxicity, oral gavage. In kind it is in vivo. The conditions noted are these: ICR, in vivo; Table 3A; oral gavage; preliminary mouse screening. How it is done: (§1) Mice ([…] strain ICR, body weight between 20 and 26 g, 35 days old+/−4 days), were force fed with compounds solubilized in olive oil to a volume of 10 μL per gram of mouse via 1 mL disposable syringes attached to 22 gauge metal canulas directly in the stomach following the Institutional Animal Care and Use Committee (IACUC) standard procedure. One hour after gavage, mice were returned to food and water access ad libitum. Dose tested ranged from 60 up to 600 mg/kg of mice, following the method recommended by the US EPA to reduce the number of mice used to determine the LD50 doses. Mice were monitored after drug administration during the first hour, and then every 4 hours up to 24 hours. The surviving mice were humanely sacrificed. Any mice displaying a high state of pain/distress would also be considered as not surviving the treatment and were sacrificed before the end of the investigation. The […] was determined using the AOT425StatPgm software; the study was registered and approved by IACUC under number 201810416.

In data set [4] the test system is Aedes aegypti mosquitoes, insecticide-susceptible Orlando strain. As to conditions: for 24h % mortality: Screened at μg/cm^2.
In data set [5] the test system is Aedes aegypti strain Orlando (sensitive). In words: Topical toxicity (24 hour mortality), Ae. aegypti Orlando. In kind it is in vivo. As to conditions: Table 5; topical, 24 h. The gist of the method:
(§2)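 Females aged 3–6 days received 200 nL of compound in ethanol topically on the thorax, 10 per concentration per replicate, and were kept at 28° C with sugar water.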

The subject of data set [6] is Anopheles gambiae G3 sensitive strain. Put plainly: Topical toxicity (24 hour mortality), An. gambiae G3. It counts as in vivo. As to conditions: Table 5; topical, 24 h. Put shortly:
as §2

Another data set relates to Mice (inbred strain ICR). In words: Mammalian toxicity, oral gavage. The conditions noted are these: Table 5; preliminary mouse screening. In kind it is in vivo. The protocol: as §1
The test system of data set [7] is Aedes aegypti strain Puerto Rico (PR, resistant to permethrin). In words: Topical toxicity (24 hour mortality), Ae. aegypti Puerto Rico. It counts as in vivo. As to conditions: Table 5; topical, 24 h; strain not given, line below OR. How it is done: The Aedes aegypti strains Orlando (sensitive) as well as the Puerto Rico (PR, resistant to permethrin) were used. The Anopheles gambiae (G3 sensitive strain, as well as Akron kdr (Akdr) strain, resistant to pyrethroids were also assessed. The larvae were provided by the USDA, Gainesville Fl, and raised in a pan with tap water maintained at 28° C. Larvae were fed a ground liver and yeast mixture, and pupae were placed in emergence cages. Adults were held at 28° C. and provided with cotton balls soaked in 10% sugar water for rearing and for all bioassays.
Female adults from 3 to 6 days were used for the experiments. The drug was dissolved in ethanol and then applied with a micro-applicator on the thorax, between the legs: 200 nL of drug per female mosquito, with different concentrations of the drug; 10 mosquitos were treated together per concentration per replicate, and put together in a small container with free access to sweet water. Mortality, i.e. no visible movement, was assessed 24 hours after treatment. Every compound was assessed on at least 3 different cohorts of mosquitoes, and the LD50 values and slopes were determined with Probit analysis, corrected with Abbott's formula.

The subject of data set [8] is Anopheles gambiae Akron kdr (Akdr) strain, resistant to pyrethroids. Put plainly: Topical toxicity (24 hour mortality), An. gambiae Akdr. As to conditions: Table 5; topical, 24 h. It counts as in vivo. The gist of the method: as §2
In data set [9] the test system is Aedes aegypti mosquitoes, pyrethroid-resistant Puerto Rico strain. In words: Vapor repellency glass tube assay (1 h), resistant strain. In kind it is in vivo. The conditions noted are these: with resistance ratio (PR).
For data set [10], the system named is Aedes aegypti mosquitoes, insecticide-susceptible Orlando strain. Put plainly: whole plant or invertebrate. As to conditions: 24 h, read-out: 24 h % Mortality, 100 μg/cm^2.
Data set [11] concerns Aedes aegypti mosquitoes, pyrethroid-resistant Puerto Rico strain. In words: Vapor toxicity (24 h lethality under constant exposure in glass tubes), resistant strain. As to conditions: LC50, with resistance ratio (PR).

Take `O=C(CCl)Nc1cccc(O)c1` [compound 2]: the σmeta in data set [1] is given as 0.12. The 1h % repellency in data set [2] (Table 3B) was 36%.
In data set [3], `O=C(Nc1c(Cl)cccc1Cl)C(F)(F)C(F)(F)F` [compound 53] returned an LD50 at 24 h of more than 2000 mg/kg. For the same compound, in data set [4] (Table 3A), the “24 h LC50, μg/cm^2” value was determined as 7.60 μg/cm^2 and the 24h % mortality turned out to be 100%. In addition, the “1h EC50 (μg/cm^2)” value in data set [2] (Table 3A) is on record as 8.90 μg/cm^2.
Take `O=C(Nc1cc(Cl)nc(Cl)c1)C(F)(C(F)(F)F)C(F)(F)F` [compound 55]: in [5], the “Ae. aegypti OR LD50” value stood at 17.20 ng/mg. For the same compound, in data set [6], the “An. gambiae G3 LD50” value amounted to 5.80 ng/mg. In addition, the “Mouse LD50” value in the data set on Mice (inbred strain ICR) is listed as approximately 50 ng/mg. Moreover, the “Ae. aegypti LD50” value in data set [7] is recorded as 7.10 ng/mg. Moreover, the “An. gambiae AKDR LD50” value in data set [8] was 2.70 ng/mg.
Regarding `O=C(Nc1c(Cl)cc(C(F)(F)F)cc1Cl)C(F)(F)C(F)(F)F` [compound 41], the LD50 at 24 h in data set [3] was 200 mg/kg. For the same compound, in [4] (Table 3A), the “24 h LC50, μg/cm^2” value is 0.27 μg/cm^2 and the 24h % mortality was determined as 100%. Further, in [2] (Table 3A), the “1h EC50 (μg/cm^2)” value is 5.30 μg/cm^2 and the 1h % repellency is 66%.
Consider `O=C(Nc1cc(F)c(F)c(F)c1)C(F)(F)C(F)(F)C(F)(F)F` [MTFI-5-3A, 2,2,3,3,4,4,4-heptafluoro-N-(3,4,5-trifluorophenyl)butanamide], for which the “1 h Repellency EC50, μg/cm^2 (RR)” value in [9] was 4.5 μg/cm^2. Also, the mortality at 100 µg/cm2 in data set [10] was 100%. Moreover, in data set [4] (24 h, LC50 (OR)), the “24 h LC50, μg/cm^2” value was determined as 13 μg/cm^2. The “24 h LC50, μg/cm^2 (RR)” value in [11] stood at 11 μg/cm^2. Also, in [2] (1 h, (OR)), the “1 h Repellency EC50, μg/cm^2” value is reported as 2.9 μg/cm^2. Moreover, the “repellency EC50, compound alone” value in data set [2] (alone, FIG. 3 / FIG. 4) stood at 2.9 μg/cm^2. For the same compound, the “1 h % Repellency, 100 μg/cm^2” value in data set [2] (screened at 100 μg/cm^2, 1 h, strain not given) stood at 68%.
With `O=C(Nc1cc(Cl)nc(Cl)c1)C(F)(F)C(F)(F)OC(F)(F)F` [compound 54], in [5], the “Ae. aegypti OR LD50” value was determined as 17.80 ng/mg. In addition, the “An. gambiae G3 LD50” value in [6] amounted to 6.04 ng/mg. Also, the “Mouse LD50” value in the data set on Mice (inbred strain ICR) was more than 2000 ng/mg. Also, the “An. gambiae AKDR LD50” value in data set [8] was found to be 11.00 ng/mg.
The compound `O=C(CCl)Nc1cccc(C(F)(F)F)c1` [compound 4] yielded a 24h % mortality in [4] (Table 3B) of 3.13%. In addition, in data set [1], the σmeta is recorded as 0.52. Also, in data set [2] (Table 3B), the 1h % repellency is 50%.
With `O=C(Nc1cc(F)c(F)c(F)c1)C(F)(F)C(F)(F)C(F)(F)F` [compound 52], in data set [3], the LD50 at 24 h was more than 2000 mg/kg. For the same compound, in [4] (Table 3A), the “24 h LC50, μg/cm^2” value was found to be 13.30 μg/cm^2 and the 24h % mortality is given as 100%. In addition, in data set [2] (Table 3A), the “1h EC50 (μg/cm^2)” value is 2.92 μg/cm^2 and the 1h % repellency is recorded as 68%.
In the case of `O=C(Nc1cc(Cl)nc(C(F)(F)F)c1)C(F)(F)C(F)(F)OC(F)(F)F` [compound 57], the “Ae. aegypti OR LD50” value in [5] was found to be 14.90 ng/mg. Moreover, the “An. gambiae G3 LD50” value in data set [6] was determined as 13.70 ng/mg. Further, the “Mouse LD50” value with Mice (inbred strain ICR) is on record as more than 200 ng/mg. Moreover, the “An. gambiae AKDR LD50” value in data set [8] amounted to 3.60 ng/mg.
With `O=C(CCl)Nc1cccc(F)c1` [compound 3], the σmeta in [1] was 0.337. Also, the 1h % repellency in data set [2] (Table 3B) is 6%.

Broadly, the LD50 is the dose at which mortality reaches 50%. Lower therefore signals greater toxicity.
